According to patent US7091247B2, “Biphenyl compound” (Takeda Pharmaceutical Company Limited, priority 2000, dated 2006):
Structures can show the parent of a compound that is named as a salt.

How the values were obtained:
human GPR14 = molecular target: T1, human GPR14 (Homo sapiens, UniProt Q9UKP6); test: Inhibition of binding of [125I]-labeled human urotensin II to human GPR14-expressing CHO cell membrane fraction; conditions: 25° C., 3 hours, read-out: Inhibitory concentration (concentration showing 50% inhibition of human GPR14 binding activity)
T1 construct: expressed in transfected cells; host or cells: CHO dhfr- cells stably transfected with pcDNA3.1-hGPR14 (CHO/hGPR14)
T1 sequence (Q9UKP6 1-389): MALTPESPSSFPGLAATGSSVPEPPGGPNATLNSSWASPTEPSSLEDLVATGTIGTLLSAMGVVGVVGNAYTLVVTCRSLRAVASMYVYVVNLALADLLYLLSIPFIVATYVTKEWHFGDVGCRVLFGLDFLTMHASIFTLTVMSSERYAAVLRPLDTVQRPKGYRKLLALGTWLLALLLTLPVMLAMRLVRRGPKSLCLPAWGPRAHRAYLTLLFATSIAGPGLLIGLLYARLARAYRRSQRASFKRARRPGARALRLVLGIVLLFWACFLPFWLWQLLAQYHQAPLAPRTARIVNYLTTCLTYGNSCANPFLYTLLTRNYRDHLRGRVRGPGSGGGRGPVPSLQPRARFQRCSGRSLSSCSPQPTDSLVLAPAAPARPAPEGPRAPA
Protocol: To 1×10^8 CHO/GPR14 cells were added 10 ml of homogenate buffer (10 mM NaHCO3, 5 mM EDTA, 0.5 mM PMSF, 1 μg/ml pepstatin, 4 μg/ml E64, 20 μg/ml leupeptin), and disrupted using Polytron (12,000 rpm, 1 minute). Cell debris solution was centrifuged at 1,000 g for 15 minutes to obtain a supernatant. The supernatant was then […] (in Beckman type 30 rotor, 30,000 rpm, 1 hour), and the resultant precipitant was collected as human GPR14-expressing CHO cell fraction.
Isotope-labeled human urotensin II to be used in experiments for testing inhibition of binding was prepared as described below. 5 μg of human urotensin II (available from Peptide Institute, Inc.) was dissolved in 25 μl of 0.4 M sodium acetate (pH 5.6). […]
Human GPR14-expressing CHO cell fraction was diluted in a membrane diluting buffer (20 mM phosphate buffer (pH 7.3), 150 mM NaCl, 5 mM MgCl2, 0.1% BSA, 0.05% CHAPS, 0.5 mM PMSF, 0.1 μg/ml Pepstatin, 20 μg/ml Leupeptin, 4 μg/ml E-64) to prepare a solution of cell membrane fraction (protein concentration: 3 μg/ml) for assay. […] Next, the filter was washed three times with membrane diluting buffer (0.2 ml), added with 20 μl of Microscinti 20 (Packard), and determined for radioactivity in Topcount (Packard). Specific-binding is calculated by subtracting non-specific binding from the total binding. […]

[1] = molecular target: T2, human somatostatin receptor protein subtype 5 (SSTR5) (Homo sapiens, UniProt P35346); test: Inhibition of binding of [125I]-somatostatin to SSTR5-expressing CHO cell membrane fraction; conditions: 25° C., 60 minutes, Hill plots, read-out: IC50 (concentration at which 50% binding of [125I]-somatostatin was inhibited)
T2 construct: expressed in transfected cells; host or cells: CHO (dhfr-) cells transfected with pA-1-11-SSTR5; clone SSTR5-32-4
T2 sequence (P35346 whole entry): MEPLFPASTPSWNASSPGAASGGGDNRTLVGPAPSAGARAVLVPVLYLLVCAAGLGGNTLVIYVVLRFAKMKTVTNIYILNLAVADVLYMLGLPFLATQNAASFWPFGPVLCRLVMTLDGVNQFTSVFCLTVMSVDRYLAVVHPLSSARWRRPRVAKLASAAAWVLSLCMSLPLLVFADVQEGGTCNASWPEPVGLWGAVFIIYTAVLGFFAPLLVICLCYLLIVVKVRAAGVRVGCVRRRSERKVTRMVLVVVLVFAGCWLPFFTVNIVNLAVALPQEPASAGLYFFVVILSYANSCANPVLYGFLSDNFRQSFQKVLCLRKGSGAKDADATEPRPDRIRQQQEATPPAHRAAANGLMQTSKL
Protocol: (3) —(CH2)h1—X^1—(CH2)h2—X^2—(CH2)h3— (h1, h2 and h3 are the same or different integers 0 to 10 provided that the sum of h1, h2 and h3 is 0 to 10, and X^1 and X^2 independently represent NH, O, S, SO or SO2 provided that, when h2 is 0, at least one of X^1 and X^2 is preferably NH); etc., and these divalent groups wherein some bonds have been converted into unsaturated bonds. […]
The SSTR5-expressing CHO cell membrane fraction prepared in Example 5 was diluted with the assay buffer to prepare a solution at a concentration of 3 •g/ml and pipetted into tubes (173 •l/tube). […] After filtration, the radioactivity of [^125I]-somatostatin remaining on the glass filer was measured with a • counter.
The degree of inhibition of binding (%) by each test substance was determined according to the following equation: The degree of inhibition of binding (%)=(radioactivity when the compound was added−radioactivity when DMSO solution was added)/(radioactivity when somatostatin was added−radioactivity when DMSO solution was added)×100. […]

[2] = molecular target: T3, GPR14-expressing CHO cells (Homo sapiens, UniProt Q9UKP6); test: Change in intracellular calcium concentration in human GPR14-expressing CHO cells (FLIPR, urotensin II-induced); format: cell-based; conditions: antagonist activity assay, 10 nM urotensin II added
T3 construct: expressed in transfected cells; host or cells: CHO dhfr- cells stably transfected with pcDNA3.1-hGPR14 (CHO/hGPR14)
T3 sequence (Q9UKP6 1-389): T1 sequence (Q9UKP6 1-389)
Protocol: GPR14-expressing CHO cells were inoculated on a 96-well plate at 1×10^4 cell/well, cultured for 48 hours, and then washed with 0.1 ml of HBSS containing 20 mM HEPES(pH 7.4), 1% FCS and 1% penicillin-streptomycin (hereinafter referred to as “wash buffer”). Next, 100 μl of another wash buffer containing 4 μM Fluo3, 0.04% pluronic acid and 2.5 mM probenicid (hereinafter referred to as “reaction buffer”) was added thereto for reaction at 37° C. for 1 hour. The reaction buffer was then removed and the plate was washed three times with 0.2 ml of wash buffer. Then, 90 μl of wash buffer and 10 μl of a solution of test compound in dimethylsulfoxide diluted 10 times (by volume) in membrane diluting buffer were added for agonist activity assay, while, for antagonist activity assay, furthermore 10 μl of 10 nM urotensin II was additionally added to determine change in intracellular calcium concentration in FLIPR (Japan Molecular Device).

SMILES	IC50 (human GPR14) [nM]	IC50 [1] [nM]	further results
N=C(N)NCc1cccc(C(=O)N(Cc2cccc(-c3ccccc3C(=O)NCCN)c2)Cc2cccc3ccccc23)c1 [Example 325, N-(2-Aminoethyl)-3′-{[[3-({[amino(imino)methyl]amino}methyl)benzoyl](1-naphthylmethyl)amino]methyl}-1,1′-biphenyl-2-carboxamide trifluoroacetate]		6	
NCCNC(=O)c1cccc(-c2cccc(CN(CCc3ccc(S(N)(=O)=O)cc3)C(=O)/C=C/c3ccccc3)c2)c1.O=C(O)C(F)(F)F [Example 71, N-(2-Aminoethyl)-3′-({[4-(aminosulfonyl)phenethyl][(E)-3-phenyl-2-propenoyl]amino}methyl)[1,1′-biphenyl]-3-carboxamide trifluoroacetate]			Inhibition of urotensin II-induced increase in intracellular calcium concentration [2]: inhibited urotensin II-induced increase in intracellular calcium concentration

More lines, main results first:

IC50 (human GPR14) [nM]	IC50 [1] [nM]	SMILES	further results
13		NS(=O)(=O)c1ccc(CCN(Cc2cccc(-c3cccc(C(=O)NCCN4CCCC4)c3)c2)C(=O)COCc2ccccc2)cc1 [Example 6, 3′-{({2-[4-(Aminosulfonyl)phenyl]ethyl}[(benzyloxy)acetyl]amino)methyl}-N-[2-(1-pyrrolidinyl)ethyl][1,1′-biphenyl]-3-carboxamide hydrochloride]	
	3	NCCNC(=O)c1ccccc1-c1cccc(CN(Cc2cccc3ccccc23)C(=O)c2ccc(S(N)(=O)=O)cc2)c1 [Example 328, N-(2-Aminoethyl)-3′-{[[4-(aminosulfonyl)benzoyl](1-naphthylmethyl)amino]methyl}-1,1′-biphenyl-2-carboxamide trifluoroacetate]	
10		NS(=O)(=O)c1ccc(CCN(Cc2cccc(-c3cccc(C(=O)NCCN4CCCC4)c3)c2)C(=O)CCCc2ccccc2)cc1 [Example 4, 3′-{({2-[4-(Aminosulfonyl)phenyl]ethyl}[4-phenylbutanoyl]amino)methyl}-N-[2-(1-pyrrolidinyl)ethyl][1,1′-biphenyl]-3-carboxamide hydrochloride]	
